Measurements reported in article PMC5026600 (ACS chemical biology, 2016).
Like-named read-outs stand apart in the source and are kept apart here.

Tests used:
TamI-RhFRED = conditions: cited from earlier work
MycCI/MycCII = target: T1, MycCI/MycCII (Micromonospora griseorubida, UniProt Q83WF5); experiment: Total turnover number; type: biochemical; conditions: MycCI/MycCII/MBP-FdR
T1 sequence (Q83WF5 1-388): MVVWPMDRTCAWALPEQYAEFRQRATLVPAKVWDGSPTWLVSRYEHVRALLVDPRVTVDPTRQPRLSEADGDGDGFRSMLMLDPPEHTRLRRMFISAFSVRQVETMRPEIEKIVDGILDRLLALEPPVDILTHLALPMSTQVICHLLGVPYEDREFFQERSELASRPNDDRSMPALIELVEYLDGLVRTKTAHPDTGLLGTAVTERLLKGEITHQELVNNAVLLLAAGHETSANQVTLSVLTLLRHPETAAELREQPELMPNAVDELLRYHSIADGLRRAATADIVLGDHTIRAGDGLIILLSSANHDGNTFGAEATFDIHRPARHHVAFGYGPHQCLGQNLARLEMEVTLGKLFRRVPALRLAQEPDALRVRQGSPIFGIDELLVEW

MycCI [1] = target: T2, MycCI (Micromonospora griseorubida, UniProt Q83WF5); experiment: Equilibrium substrate binding assay; conditions: for Percent of enzyme in high-spin state at saturating substrate: MycCI wild-type, relative to saturation with 10 taken as complete conversion
T2 sequence (Q83WF5 1-388): T1 sequence (Q83WF5 1-388)

TylHI/MycCII = TylHI/MycCII (Streptomyces fradiae, UniProt Q9ZHQ1); experiment: Turnover frequency; type: biochemical; conditions: MycCII as surrogate ferredoxin vs TylHII
Sequence of TylHI/MycCII (Q9ZHQ1 whole entry): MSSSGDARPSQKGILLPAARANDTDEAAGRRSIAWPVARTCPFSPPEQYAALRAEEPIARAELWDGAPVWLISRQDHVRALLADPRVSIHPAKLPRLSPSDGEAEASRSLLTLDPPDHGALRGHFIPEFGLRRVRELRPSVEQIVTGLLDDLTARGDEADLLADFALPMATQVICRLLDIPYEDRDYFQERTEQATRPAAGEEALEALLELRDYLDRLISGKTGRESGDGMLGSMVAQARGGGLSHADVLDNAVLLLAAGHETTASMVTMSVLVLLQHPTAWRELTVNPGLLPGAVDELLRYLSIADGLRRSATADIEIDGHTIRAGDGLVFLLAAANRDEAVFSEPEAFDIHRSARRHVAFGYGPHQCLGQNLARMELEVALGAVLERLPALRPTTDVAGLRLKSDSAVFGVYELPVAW

TylHI/TylHII = TylHI/TylHII (Streptomyces fradiae, UniProt Q9ZHQ1); experiment: Turnover frequency; type: biochemical; conditions: TylHI/TylHII/MBP-FdR
Sequence of TylHI/TylHII (Q9ZHQ1 whole entry): as above

[2] = target: T3, MycCI in conjunction with MycCII and MBP-FdR (Micromonospora griseorubida, UniProt Q83WF5); experiment: Scale-up reactions with MycCI, MycCII and MBP-FdR, conversion; type: biochemical; conditions: for Conversion: scale-up reactions
T3 sequence (Q83WF5 1-388): T1 sequence (Q83WF5 1-388)

MycCI-RhFRED = MycCI-RhFRED (Micromonospora griseorubida, UniProt Q83WF5); experiment: Steady-state kinetics / TOF, product formation by HPLC; type: biochemical; conditions: for Fold lower rate of product formation vs tripartite MycCI system: MycCI-RhFRED compared to MycCI/MycCII/MBP-FdR, label is the product formed
MycCI [3] = target: T2, MycCI; conditions: determined by monitoring NADPH consumption; cited from earlier work
MycCI/MycCII/MBP-FdR = target: T4, MycCI/MycCII/MBP-FdR (Micromonospora griseorubida, UniProt Q83WF5); experiment: Steady-state kinetics / TOF, product formation by HPLC; type: biochemical
T4 sequence (Q83WF5 1-388): T1 sequence (Q83WF5 1-388)

OleP = conditions: binding to OleP; cited from earlier work
[4] = target: MycCI (Micromonospora griseorubida) (UniProt Q83WF5); conditions: cited from earlier work
MycCI [5] = target: T2, MycCI; conditions: read-out: apparent dissociation constant (Kd); N-terminal His-tagged MycCII binding to MycCI; cited from earlier work

CC(/C=C/C(O)=C1/C(=O)CNC1=O)=C\[C@@H](C)[C@H]1O[C@@]2(C)O[C@H](C(=O)[C@H]3O[C@]32C)[C@@H]1C [tirandamycin A]
kcat (TamI-RhFRED): 0.00183 ± 0.00017 s⁻¹

CC[C@H]1OC(=O)[C@H](C)C(=O)[C@H](C)[C@@H](O)[C@@H](C)C[C@@H](C)C(=O)/C=C/[C@H]1C [compound 4, narbonolide]
C-H oxidation of the compound by the enzyme (MycCI/MycCII): unable to catalyze C-H oxidation | Concentration-dependent change in the spin state of the enzyme (MycCI [1]; MycCI): did not induce a concentration-dependent change in the spin state

CC[C@H]1OC(=O)C[C@@H](O)[C@H](C)[C@@H](O[C@@H]2O[C@H](C)[C@@H](O)[C@H](N(C)C)[C@H]2O)[C@@H](CC=O)C[C@@H](C)C(=O)/C=C/C(C)=C/[C@@H]1C [compound 12, 23-deoxy-5-O-mycaminosyl-tylonolide]
Fold increase of TOF with MycCII instead of TylHII (TylHI/MycCII): 12 fold | Turnover frequency (TOF) (TylHI/TylHII): 0.14 ± 0.03 min⁻¹

CC[C@H]1C[C@@H](C)C(=O)/C=C/C(C)=C/[C@H](C)[C@@H](CC)OC(=O)C[C@@H](O)[C@H](C)[C@H]1O [compound 10, tylactone]
Kd (MycCI [1]; Kd, MycCI): ~3 µM | Conversion [2]: ~ 50%

23-hydroxy-tylactone [compound 15]
Fold lower rate of product formation vs tripartite MycCI system (MycCI-RhFRED): about 3 fold

CC[C@H]1OC(=O)/C=C/[C@H](C)[C@@H](O[C@@H]2O[C@H](C)C[C@H](N(C)C)[C@H]2O)[C@@H](C)C[C@@H](C)C(=O)/C=C/C=C/[C@@H]1C [compound 9, mycinamicin VIII]
kcat (MycCI [3]): 1.73 ± 0.033 s⁻¹ | Turnover rate at low substrate concentration (MycCI/MycCII/MBP-FdR; MycCI/MycCII/MBP-FdR, 10 μM substrate): 2.3 ± 0.3 min⁻¹ | Turnover frequency (TOF) (MycCI/MycCII/MBP-FdR; tripartite MycCI/MycCII/MBP-FdR, 500 μM substrate): 1.4 ± 0.1 min⁻¹ | Turnover frequency (TOF) (MycCI-RhFRED; MycCI-RhFRED, 500 μM substrate): 1.19 ± 0.06 min⁻¹

CC[C@H]1OC(=O)[C@H](C)[C@@H](O[C@@H]2O[C@H](C)C[C@H](N(C)C)[C@H]2O)[C@@H](C)C[C@@H](C)C(=O)/C=C/[C@H]1C [compound 3, YC-17]
C-H oxidation of the compound by the enzyme (MycCI/MycCII): unable to catalyze C-H oxidation | Percent of enzyme in high-spin state at saturating substrate (MycCI [1]): ~ 30%

CC[C@H]1OC(=O)/C=C/[C@H](C)[C@@H](O)[C@@H](C)C[C@@H](C)C(=O)/C=C/C=C/[C@@H]1C [compound 8, protomycinolide IV]
Percent of enzyme in high-spin state at saturating substrate (MycCI [1]): ~ 80% | Conversion [2]: ~ 30% | Fold lower specificity constant relative to 10 (MycCI-RhFRED; MycCI-RhFRED, product formation): ~ 14 fold

CC(=O)N1CCN(c2ccc(OCC3COC(Cn4ccnc4)(c4ccc(Cl)cc4Cl)O3)cc2)CC1 (centres unmarked) [ketoconazole]
Kd (OleP): 0.005 µM

CC[C@H]1OC(=O)[C@H](C)[C@@H](O)[C@@H](C)C[C@@H](C)C(=O)/C=C/[C@H]1C [compound 2, 10-deoxymethynolide]
C-H oxidation of the compound by the enzyme (MycCI/MycCII): unable to catalyze C-H oxidation | Concentration-dependent change in the spin state of the enzyme (MycCI [1]; MycCI): did not induce a concentration-dependent change in the spin state

MycCII (from UniProt Q83WF4)
Kd [4]: 7 µM

CC[C@H]1OC(=O)/C=C/[C@H](C)[C@@H](O)[C@@H](C)C[C@@H](C)C(=O)/C=C/C=C/[C@@H]1CO [compound 13, mycinolide IV]
Fold lower rate of product formation vs tripartite MycCI system (MycCI-RhFRED): ~6 fold

CC[C@H]1OC(=O)[C@H](C)C(=O)[C@H](C)[C@@H](O[C@@H]2O[C@H](C)C[C@H](N(C)C)[C@H]2O)[C@@H](C)C[C@@H](C)C(=O)/C=C/[C@H]1C [compound 5, narbomycin]
Percent of enzyme in high-spin state at saturating substrate (MycCI [1]): ~ 80% | Monohydroxylated product, share of the reaction mixture ([2]; scale-up, first monohydroxylated product): ~ 2% | Slightly more polar monohydroxylated product, share of the reaction mixture ([2]; scale-up, second product): ~ 0.5%

B1: MycCII: [3Fe-4S]-type ferredoxin encoded by mycCII, redox partner of MycCI (protein)
chain: MRIVLDAERCVGAGQCEATAPELFTQGDDGLGLVRDRPVTPELLGPAREAVDRCPVRAIRIESSVRTGWARGAG
modifications: left off: His tag, N-terminal, state not stated
Kd (MycCI [5]): 7 µM
